Here are results for ten molecules from patent US20250163059A1, “HETEROCYCLIC KINASE INHIBITORS” (Incyte Corporation, priority 2023, published 2025).

The target in experiment [1] is T1, pseudo-kinase domain (JH2) of human V617F mutant JAK2 (Homo sapiens, UniProt O60674, F794H/V617F/W659A/W777A).
T1 construct: pseudo-kinase domain (JH2, amino-acids 536-812 with 3 surface mutations W659A, W777A, F794H); purchased BPS Bioscience 79498; host or cells: baculovirus expression system
The experiment can be described thus: JAK2 LanthaScreen JH2-V617F Binding Assay. The settings on record: 50 nM Fluorescent JAK2-JH2 Tracer, 1 hour at 25° C., read-out: JH2 BIND V617F. As for the experimental part: Example B. JAK2 LanthaScreen JH2-V617F Binding Assay
JAK2 JH2-V617F binding assay utilizes pseudo-kinase domain (JH2, amino-acids 536-812 with 3 surface mutations W659A, W777A, F794H) of human V617F mutant JAK2 expressed as C-terminal His-Avi-tagged, biotinylated protein in a baculovirus expression system (BPS Bioscience, Catalog #79498). The assay was conducted in black 384-well polystyrene plates in a final reaction volume of 20 μL. JAK2 JH2-V617F (0.26 nM) was incubated with compounds (100 nL serially diluted in DMSO) in the presence of 50 nM Fluorescent JAK2-JH2 Tracer (MedChem Express Catalog #HY-102055) and 0.25 nM Streptavidin-Tb cryptate (Cisbio Part #610SATLB) in assay buffer (50 mM Tris, pH=7.5, 10 mM MgCl2, 0.01% Brij-35, 0.1% BSA, 1 mM EGTA, 5% Glycerol and 5 mM DTT). Non-specific binding was accessed in the presence of 2 mM ATP. After incubation for 1 hour at 25° C., LanthaScreen signals were read on a PHERAstar FS plate reader (BMG LABTECH). Data was analyzed with IDBS XLfit and GraphPad Prism 5.0 software using a four parameter dose response curve to determine IC50 for each compound.

Experiment [2] has as its target T2, catalytic domain (JH1) of JAK2 protein (Homo sapiens, UniProt O60674).
T2 construct: phosphorylated on the tyrosine residue by catalytic domain (JH1) of JAK2 protein; purchased BPS 40450
Kind of experiment: JAK2 (JH1) Enzymatic Assay at ATP=Km (30 μM), TR-FRET. The conditions noted are these: 30 μM ATP (=Km), 60 min at 25° C., read-out: V617F ENZ 30 μM. Format: biochemical. The protocol: Example A. JAK2 (JH1) Enzymatic Assay at ATP=Km (30 μM)
Inhibitor potency was determined in TR-FRET assay, which measures HTRF signal generated as a result of Eu-labeled anti-phosphotyrosine antibody binding to Biotin-labeled peptide, phosphorylated on the tyrosine residue by catalytic domain (JH1) of JAK2 protein in the presence of ATP-Mg and Allophycocyanin-streptavidin (APC-SA). JH1 domain of JAK2 protein was purchased from BPS (#40450), Eu-W1204-labeled Anti-Phosphotyrosine Antibody (PY-20) and SureLight Allophycocyanin-streptavidin were purchased from PerkinElmer (#AD0067 and #AD0201). Peptide Biot-EQEDEPEGDYFEWLEES-amide (SEQ ID NO.: 1) was purchased from Quality Controlled Biochemicals, MA (Q307-166). Assay buffer consisted of 50 mM Tris, pH=7.5, 10 mM MgCl2, 0.01% Brij-35, 0.1% BSA, 1 mM EGTA, 5% Glycerol and 5 mM DTT. To assess the inhibition of the enzymatic activity, compound was serially diluted in DMSO and a volume of 0.1 μL was transferred to the wells of a black regular volume 384-well plate (Greiner #781076) using Echo Liquid Handler (Labcyte Inc.). Positive and Negative control wells contained 0.1 μL of DMSO.
Enzyme (catalytic domain JH1 of JAK2) was diluted in assay buffer, and the Multidrop Combi liquid handler (Thermo Scientific) was used to dispense 10 μL to each well (except positive control wells, to which 10 μL of assay buffer were dispensed instead of protein).
Plate was centrifuged and reaction was started by addition of 10 μL of substrate solution containing biotinylated peptide and ATP to all wells. Plate was again centrifuged and enzymatic reaction was allowed to proceed for 60 min. at 25° C. Final concentrations in the assay were as follows: 0.02 nM protein, 30 uM ATP, 0.5 uM biotinylated peptide. Reaction was stopped by addition of 10 μL of solution, containing 45 mM EDTA, 144 nM APC/225 nM Streptavidin, and 4.5 nM Eu-Ab in detection buffer: 50 mM Tris, pH=7.8, 150 mM NaCl, 0.5 mg/ml BSA.
Plate was centrifuged and incubated for 30 min. at room temperature. HTRF signal was measured on PHERAstar plate reader instrument (BMG Labtech) with excitation at 337 nm and emissions at 620 nm and 665 nm. Data analysis tools integrated in Genedata Screener software were used to analyze the results. Raw data was normalized to percent of vehicle (DMSO) Negative control, after subtracting no-enzyme Positive inhibitor control. The IC50 values were derived by fitting the data to a four parameter logistic equation producing a sigmoidal dose-response curve using the following equation: Y=Bottom+(Top−Bottom)/(1+10^((Log IC50−X)*Hill slope)) where X is the logarithm of inhibitor concentration and Y is the response.

T2 sequence (O60674 849-1124 limits assumed): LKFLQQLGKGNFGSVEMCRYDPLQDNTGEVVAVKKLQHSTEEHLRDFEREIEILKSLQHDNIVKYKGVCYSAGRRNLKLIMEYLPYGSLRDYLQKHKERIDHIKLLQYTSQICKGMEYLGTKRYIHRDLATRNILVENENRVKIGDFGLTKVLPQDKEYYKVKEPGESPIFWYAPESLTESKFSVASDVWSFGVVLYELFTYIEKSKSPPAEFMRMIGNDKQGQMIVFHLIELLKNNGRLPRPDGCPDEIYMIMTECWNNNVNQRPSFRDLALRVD
T1 sequence (O60674 536-812 V617F/W659A/W777A/F794H): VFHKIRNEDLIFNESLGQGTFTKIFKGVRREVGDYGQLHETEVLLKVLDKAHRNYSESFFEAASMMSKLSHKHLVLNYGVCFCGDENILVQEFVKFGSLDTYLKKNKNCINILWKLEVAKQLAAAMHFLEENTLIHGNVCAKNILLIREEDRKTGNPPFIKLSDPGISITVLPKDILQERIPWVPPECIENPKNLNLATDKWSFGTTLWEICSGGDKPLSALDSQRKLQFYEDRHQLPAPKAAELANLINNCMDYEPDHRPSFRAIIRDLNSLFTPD

Consider `CNc1ncc(-c2cccc(-c3cnn(C4CN(Cc5cccc(C(=O)N6CCCC6)n5)C4)c3)c2OC)c2cc(NC(=O)C3CC3)nnc12` [Example 15, N-(5-(2-Methoxy-3-(1-(1-((6-(pyrrolidine-1-carbonyl)pyridin-2-yl)methyl)azetidin-3-yl)-1H-pyrazol-4-yl)phenyl)-8-(methylamino)pyrido[3,4-c]pyridazin-3-yl)cyclopropane-carboxamide], for which the IC50 in experiment [1] was at most 10 nM; in experiment [2], above 1000 nM.
The corresponding values for `COc1c(-c2cnn(C3CN(Cc4cccc(C(=O)N(C)C)n4)C3)c2)cccc1-c1cnc(N)c2cnc(NC(=O)C3CC3)cc12` [Example 16, 6-((3-(4-(3-(1-Amino-6-(cyclopropanecarboxamido)-2,7-naphthyridin-4-yl)-2-methoxyphenyl)-1H-pyrazol-1-yl)azetidin-1-yl)methyl)-N,N-dimethylpicolinamide] are at most 10 nM and 10 to 100 nM.
For `COc1c(-c2cnn(C3CN(Cc4cccc(C(=O)N(C)CC(F)(F)F)n4)C3)c2)cccc1-c1cnc(N)c2cnc(NC(=O)C3CC3)cc12` [Example 17, 6-((3-(4-(3-(1-Amino-6-(cyclopropane-carboxamido)-2,7-naphthyridin-4-yl)-2-methoxyphenyl)-1H-pyrazol-1-yl)azetidin-1-yl)methyl)-N-methyl-N-(2,2,2-trifluoroethyl) picolinamide], the values for the IC50 in experiment [1] and in experiment [2] were at most 10 nM and 10 to 100 nM, respectively.
The corresponding values for `COc1c(-c2cnn(C3CN(Cc4cccc(C(=O)N5CCCC5)n4)C3)c2)cccc1-c1cnc(N)c2cnc(NC(=O)C3CC3)cc12` [Example 18, N-(8-Amino-5-(2-methoxy-3-(1-(1-((6-(pyrrolidine-1-carbonyl)pyridin-2-yl)methyl)azetidin-3-yl)-1H-pyrazol-4-yl)phenyl)-2,7-naphthyridin-3-yl)cyclopropane-carboxamide] are at most 10 nM and 10 to 100 nM.
For `COc1c(-c2cnn(C3CN(Cc4cccc(C(=O)N5CCC(F)(F)C5)n4)C3)c2)cccc1-c1cnc(N)c2cnc(NC(=O)C3CC3)cc12` [Example 19, N-(8-amino-5-(3-(1-(1-((6-(3,3-difluoro-pyrrolidine-1-carbonyl)pyridin-2-yl)methyl)azetidin-3-yl)-1H-pyrazol-4-yl)-2-methoxy-phenyl)-2,7-naphthyridin-3-yl)cyclopropane-carboxamide], in that order: at most 10 nM and 10 to 100 nM.
The corresponding values for `COc1c(-c2cnn(C3CN(Cc4cccc(C(=O)N5CCOCC5)n4)C3)c2)cccc1-c1cnc(N)c2cnc(NC(=O)C3CC3)cc12` [Example 20, N-(8-amino-5-(2-methoxy-3-(1-(1-((6-(morpholine-4-carbonyl)pyridin-2-yl)methyl)azetidin-3-yl)-1H-pyrazol-4-yl)phenyl)-2,7-naphthyridin-3-yl)cyclopropane-carboxamide] are at most 10 nM and 100 to 500 nM.
As to `COc1c(-c2cnn(C3CN(Cc4ccccn4)C3)c2)cccc1-c1cnc(N)c2cnc(NC(=O)C3CC3)cc12` [Example 21, N-(8-Amino-5-(2-methoxy-3-(1-(1-(pyridin-2-ylmethyl)azetidin-3-yl)-1H-pyrazol-4-yl)phenyl)-2,7-naphthyridin-3-yl)cyclopropanecarboxamide], the IC50 was at most 10 nM in experiment [1] and 100 to 500 nM in experiment [2].
With `COC(=O)c1cccc(CN2CC(n3cc(-c4cccc(-c5cnc(NC(C)=O)c6cnc(NC(=O)C7CC7)cc56)c4OC)cn3)C2)n1` [Example 22, Methyl 6-((3-(4-(3-(1-acetamido-6-(cyclopropanecarboxamido)-2,7-naphthyridin-4-yl)-2-methoxyphenyl)-1H-pyrazol-1-yl)azetidin-1-yl)methyl)picolinate], the IC50 in experiment [1] is at most 10 nM; in experiment [2], above 1000 nM.
On to `CNc1ncc(-c2cccc(-c3ccc(C(=O)N(C)Cc4ccccn4)nc3)c2OC)c2cc(NC(=O)C3CC3)ncc12` [Example 23, 5-(3-(6-(Cyclopropanecarboxamido)-1-(methylamino)-2,7-naphthyridin-4-yl)-2-methoxyphenyl)-N-methyl-N-(pyridin-2-ylmethyl)picolinamide], for which the IC50 is 10 to 100 nM in experiment [1] and above 1000 nM in experiment [2].
The corresponding values for `CNc1ncc(-c2cccc(-c3cnn(C4CN(CC56CCCC(C(=O)N(C)C)(C5)C6)C4)c3)c2OC)c2cc(NC(=O)C3CC3)ncc12` [Example 24, 5-((3-(4-(3-(6-(Cyclopropanecarboxamido)-1-(methylamino)-2,7-naphthyridin-4-yl)-2-methoxyphenyl)-1H-pyrazol-1-yl)azetidin-1-yl)methyl)-N,N-dimethylbicyclo[3.1.1]heptane-1-carboxamide] are 10 to 100 nM and above 1000 nM.
